Source: US20160213647A1, “COMPOSITIONS AND METHODS FOR INHIBITING VIRAL INFECTION” (priority 2015, published 2016)
Where two headings read alike, the source gives them in different places.

Columns and labels:
HIV-1 isolate MDR807 = assay: microbe, parasite or virus in culture; conditions: Human immunodeficiency virus 1, PBMC
HIV-2 CDC 310319 = assay: microbe, parasite or virus in culture; conditions: Human immunodeficiency virus 2, PBMC
HIV-1 isolate NL4-3 [1] = assay: microbe, parasite or virus in culture; conditions: Human immunodeficiency virus 1, NL43, PBMC
HIV-2 CBL20 H9 = assay: microbe, parasite or virus in culture; conditions: Human immunodeficiency virus 2, PBMC
HIV-1 91US001 = assay: microbe, parasite or virus in culture; conditions: Human immunodeficiency virus 1, PBMC
[2] = test system: Peripheral Blood Mononuclear Cells (PBMCs); conditions: human
HIV-1 92HT599 = assay: microbe, parasite or virus in culture; conditions: Human immunodeficiency virus 1, PBMC
HIV-1 isolate 4736_4 = assay: microbe, parasite or virus in culture; conditions: Human immunodeficiency virus 1, PBMC
HIV-1 isolate A17 = assay: microbe, parasite or virus in culture; conditions: Human immunodeficiency virus 1, PBMC
in vitro [3] = conditions: human
HIV-1 isolate 1022-48 = assay: microbe, parasite or virus in culture; conditions: Human immunodeficiency virus 1, PBMC
in vitro [4] = conditions: human; remark: listed apart in the source
HIV-1 MDR 769 = assay: microbe, parasite or virus in culture; conditions: Human immunodeficiency virus 1, PBMC
HIV-1 isolate MDR769 = assay: microbe, parasite or virus in culture; conditions: Human immunodeficiency virus 1, PBMC
in vitro [5] = conditions: human; remark: listed apart in the source
A/Ca/07/09 (H1N1) = assay: microbe, parasite or virus in culture; assay type: cell-based; conditions: Influenza A virus, H1N1, HEK-293T
A/Udorn/72 (H3N2) = assay: microbe, parasite or virus in culture; assay type: cell-based; conditions: Influenza A virus, H3N2, HEK-293T
CHIKV 899 wild-type = assay: Chikungunya virus-induced cell death (CPE, MTS/PMS) assay in Vero A cells; conditions: Chikungunya virus, Vero, read-out: EC50 WT
HIV-1 isolate NL4-3 [6] = test system: HIV-1 isolate NL4-3

With `Cc1cn([C@H]2C[C@H](N=[N+]=[N-])[C@@H](CO)O2)c(=O)[nH]c1=O` [AZT, azidothymidine] as the compound, how does the IC90 (HIV-1 isolate MDR807) read?
Its IC90 is 162 nM.

And the IC90 (HIV-1 isolate MDR807; read-out: IC50)?
The IC90 was > 1000 nM.

And the IC50 (HIV-2 CDC 310319)?
The IC50 was 5.73 nM.

And the IC90 (HIV-1 isolate NL4-3 [1])?
The IC90 was 9.96 nM.

And the IC90 (HIV-1 isolate NL4-3 [1]; read-out: IC50)?
The IC90 was 39.6 nM.

And the IC50 (HIV-2 CBL20 H9)?
The IC50 was < 0.1 nM.

What about the IC50 (HIV-1 91US001) of the same compound?
Its IC50 is 17.4 nM.

What about the CC50 [2] of the same compound?
The CC50 was > 1000 nM.

And the IC50 (HIV-1 92HT599)?
Its IC50 is 11.9 nM.

And the IC90 (HIV-1 isolate 4736_4)?
The IC90 was 2.57 nM.

What about the IC90 (HIV-1 isolate 4736_4; read-out: IC50) of the same compound?
Its IC90 is 20.6 nM.

And the IC90 (HIV-1 isolate A17)?
The IC90 was 11.6 nM.

And the IC90 (HIV-1 isolate A17; read-out: IC50)?
The IC90 was 27.4 nM.

And the CC50 (in vitro [3])?
Its CC50 is > 1000 nM.

What about the IC50 (HIV-1 isolate 1022-48) of the same compound?
The IC50 was > 1000 nM.

What about the IC90 (HIV-1 isolate 1022-48) of the same compound?
The IC90 was > 1000 nM.

And the CC50 (in vitro [4])?
Its CC50 is > 1000 nM.

With `CC(C)Nc1cccnc1N1CCN(C(=O)c2cc3cc(NS(C)(=O)=O)ccc3[nH]2)CC1` [Delavirdine] as the compound, how does the IC90 (HIV-1 isolate NL4-3 [1]) read?
The IC90 was 30.6 nM.

And the IC90 (HIV-1 isolate NL4-3 [1]; read-out: IC50)?
Its IC90 is 57.6 nM.

What about the IC50 (HIV-1 isolate A17) of the same compound?
The IC50 was > 2000 nM.

And the IC90 (HIV-1 isolate A17)?
Its IC90 is > 2000 nM.

And the CC50 (in vitro [3])?
Its CC50 is > 2000 nM.

For `O=C1Nc2ccc(Cl)cc2[C@@](C#CC2CC2)(C(F)(F)F)O1` [Efavirenz], which IC50 (HIV-1 MDR 769) is on record?
Its IC50 is 0.66 nM.

And the CC50 [2]?
The CC50 was > 1000 nM.

What about the CC50 (in vitro [4]) of the same compound?
Its CC50 is > 1000 nM.

With `COc1cc2c(cc1Cc1cccc(Cl)c1F)c(=O)c(C(=O)O)cn2[C@H](CO)C(C)C` [Elvitegravir] as the compound, how does the IC90 (HIV-1 isolate NL4-3 [1]) read?
Its IC90 is 0.52 nM.

And the IC90 (HIV-1 isolate NL4-3 [1]; read-out: IC50)?
The IC90 was 1.25 nM.

And the IC90 (HIV-1 isolate 4736_4)?
The IC90 was 81.9 nM.

And the IC90 (HIV-1 isolate 4736_4; read-out: IC50)?
The IC90 was 251 nM.

What about the CC50 (in vitro [3]) of the same compound?
Its CC50 is > 1000 nM.

With `Cc1cccc(C)c1OCC(=O)N[C@@H](Cc1ccccc1)[C@@H](O)C[C@H](Cc1ccccc1)NC(=O)[C@H](C(C)C)N1CCCNC1=O` [Lopinavir] as the compound, how does the IC50 (HIV-1 MDR 769) read?
The IC50 was 827 nM.

What about the CC50 ([2]; 7 days) of the same compound?
The CC50 was > 1000 nM.

And the CC50 at 7 days (in vitro [4])?
The CC50 at 7 days was > 1000 nM.

With `Cc1ccnc2c1NC(=O)c1cccnc1N2C1CC1` [Nevirapine] as the compound, how does the IC90 (HIV-1 isolate NL4-3 [1]) read?
The IC90 was 75.3 nM.

What about the IC90 (HIV-1 isolate NL4-3 [1]; read-out: IC50) of the same compound?
The IC90 was 227 nM.

And the IC50 (HIV-1 isolate A17)?
The IC50 was > 10000 nM.

What about the IC90 (HIV-1 isolate A17) of the same compound?
Its IC90 is > 10000 nM.

What about the CC50 (in vitro [3]) of the same compound?
The CC50 was > 10000 nM.

And the IC90 (HIV-1 isolate 1022-48)?
The IC90 was 70.4 nM.

And the IC90 (HIV-1 isolate 1022-48; read-out: IC50)?
Its IC90 is 242 nM.

Which IC90 (HIV-1 isolate MDR807) does the source give for `Cc1nnc(C(=O)NC(C)(C)c2nc(C(=O)NCc3ccc(F)cc3)c(O)c(=O)n2C)o1` [Raltegravir, raltegravir] here?
Its IC90 is 0.46 nM.

And the IC90 (HIV-1 isolate MDR807; read-out: IC50)?
The IC90 was 2.16 nM.

What about the IC90 (HIV-1 isolate NL4-3 [1]) of the same compound?
Its IC90 is 1.3 nM.

What about the IC90 (HIV-1 isolate NL4-3 [1]; read-out: IC50) of the same compound?
Its IC90 is 5.18 nM.

And the IC90 (HIV-1 isolate 4736_4)?
Its IC90 is 74.5 nM.

And the IC90 (HIV-1 isolate 4736_4; read-out: IC50)?
The IC90 was > 100 nM.

What about the CC50 (in vitro [3]) of the same compound?
Its CC50 is > 100 nM.

And the IC90 (HIV-1 isolate MDR769)?
Its IC90 is 3.64 nM.

What about the IC90 (HIV-1 isolate MDR769; read-out: IC50) of the same compound?
The IC90 was 8.95 nM.

What does the source list for `NC(=O)c1ncn([C@@H]2O[C@H](CO)[C@@H](O)[C@H]2O)n1` [Ribavirin, reference compound]?
CC50 (in vitro [5]): > 100000 nM; EC50 (A/Ca/07/09 (H1N1)): 12800 nM; EC50 (A/Udorn/72 (H3N2)): 5240 nM

For `CC(C)c1nc(CN(C)C(=O)N[C@H](C(=O)N[C@@H](Cc2ccccc2)C[C@H](O)[C@H](Cc2ccccc2)NC(=O)OCc2cncs2)C(C)C)cs1` [Ritonavir, ritonavir], which IC90 (HIV-1 isolate MDR807) is on record?
The IC90 was 1280 nM.

What about the IC90 (HIV-1 isolate MDR807; read-out: IC50) of the same compound?
The IC90 was 5940 nM.

What about the IC90 (HIV-1 isolate NL4-3 [1]) of the same compound?
Its IC90 is 45.5 nM.

And the IC90 (HIV-1 isolate NL4-3 [1]; read-out: IC50)?
The IC90 was 92.3 nM.

And the IC50 (HIV-1 isolate 1022-48)?
Its IC50 is > 10000 nM.

And the IC90 (HIV-1 isolate 1022-48)?
Its IC90 is > 10000 nM.

For `NC(=O)c1nc(F)c[nH]c1=O` [T-705, favipiravir, reference compound], which EC50 (CHIKV 899 wild-type) is on record?
The EC50 was 7400 nM.

With Enfuvirtide as the compound, how does the IC50 (HIV-1 isolate NL4-3 [6]) read?
Its IC50 is 412 nM.

And the IC90 (HIV-1 isolate NL4-3 [6])?
Its IC90 is 133 nM.

For enfuvirtide, which CC50 (human PBMCs) is on record?
The CC50 was > 2000 nM.
